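The compound was tested at five concentrations on cells cultured in 96-well plates, with a 48-hour exposure period. TGI: concentration producing complete growth inhibition.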
Columns and labels:
Assay in all cases: NCI anticancer screen, dose series, 48 h
[1] = test system: 786-0 renal
[2] = test system: A498 renal
[3] = test system: A549 NSCLC
[4] = test system: ACHN renal
[5] = test system: CAKI-1 renal
[6] = test system: CCRF-CEM leukemia
[7] = test system: COLO 205 colon
[8] = test system: DLD-1 colon
[9] = test system: DMS 114 small cell lung
[10] = test system: DMS 273 small cell lung
[11] = test system: EKVX NSCLC
[12] = test system: HCC-2998 colon
[13] = test system: HCT-116 colon
[14] = test system: HCT-15 colon
[15] = test system: HL-60(TB) leukemia
[16] = test system: HOP-18 NSCLC
[17] = test system: HOP-62 NSCLC
[18] = test system: HOP-92 NSCLC
[19] = test system: HT29 colon
[20] = test system: IGROV1 ovarian
[21] = test system: K-562 leukemia
[22] = test system: KM12 colon
[23] = test system: KM20L2 colon
[24] = test system: LOX IMVI melanoma
[25] = test system: M14 melanoma
[26] = test system: M19-MEL melanoma
[27] = test system: MALME-3M melanoma
[28] = test system: MOLT-4 leukemia
[29] = test system: NCI-H226 lung
[30] = test system: NCI-H23 lung
[31] = test system: NCI-H460 lung
[32] = test system: NCI-H522 lung
[33] = test system: OVCAR-3 ovarian
[34] = test system: OVCAR-4 ovarian
[35] = test system: OVCAR-5 ovarian
[36] = test system: OVCAR-8 ovarian
[37] = test system: RPMI-8226 leukemia
[38] = test system: RXF 393 renal
[39] = test system: SF-268 CNS
[40] = test system: SF-295 CNS
[41] = test system: SF-539 CNS
[42] = test system: SK-MEL-2 melanoma
[43] = test system: SK-MEL-28 melanoma
[44] = test system: SK-MEL-5 melanoma
[45] = test system: SK-OV-3 ovarian
[46] = test system: SN12C renal
[47] = test system: SNB-19 CNS
[48] = test system: SNB-75 CNS
[49] = test system: SNB-78 CNS
[50] = test system: SR leukemia
[51] = test system: SW-620 colon
[52] = test system: TK-10 renal
[53] = test system: U251 CNS
[54] = test system: UACC-257 melanoma
[55] = test system: UACC-62 melanoma
[56] = test system: UO-31 renal
[57] = test system: XF 498 CNS
[58] = test system: LXFL 529 NSCLC

Compound: CC(=O)OCC1=C(CCC#N)N2C(=O)C(NC(=O)Cc3cccs3)C2S(=O)C1 (centres undefined)
- TGI [1]: > 100 µM
- TGI [2]: > 100 µM
- TGI [3]: > 100 µM
- TGI [4]: > 100 µM
- TGI [5]: > 100 µM
- TGI [6]: > 100 µM
- TGI [7]: > 100 µM
- TGI [8]: > 100 µM
- TGI [9]: > 100 µM
- TGI [10]: > 100 µM
- TGI [11]: > 100 µM
- TGI [12]: > 100 µM
- TGI [13]: > 100 µM
- TGI [14]: > 100 µM
- TGI [15]: > 100 µM
- TGI [16]: > 100 µM
- TGI [17]: > 100 µM
- TGI [18]: > 100 µM
- TGI [19]: > 100 µM
- TGI [20]: > 100 µM
- TGI [21]: > 100 µM
- TGI [22]: > 100 µM
- TGI [23]: > 100 µM
- TGI [24]: > 100 µM
- TGI [25]: > 100 µM
- TGI [26]: > 100 µM
- TGI [27]: > 100 µM
- TGI [28]: > 100 µM
- TGI [29]: > 100 µM
- TGI [30]: > 100 µM
- TGI [31]: > 100 µM
- TGI [32]: > 100 µM
- TGI [33]: > 100 µM
- TGI [34]: > 100 µM
- TGI [35]: > 100 µM
- TGI [36]: > 100 µM
- TGI [37]: > 100 µM
- TGI [38]: > 100 µM
- TGI [39]: > 100 µM
- TGI [40]: > 100 µM
- TGI [41]: > 100 µM
- TGI [42]: > 100 µM
- TGI [43]: > 100 µM
- TGI [44]: > 100 µM
- TGI [45]: > 100 µM
- TGI [46]: > 100 µM
- TGI [47]: > 100 µM
- TGI [48]: > 100 µM
- TGI [49]: > 100 µM
- TGI [50]: > 100 µM
- TGI [51]: > 100 µM
- TGI [52]: > 100 µM
- TGI [53]: > 100 µM
- TGI [54]: > 100 µM
- TGI [55]: > 100 µM
- TGI [56]: > 100 µM
- TGI [57]: > 100 µM

Compound: CC(=O)OC1COC(n2c(O)c(N=NC(N)=S)c3cc(Br)ccc32)C(OC(C)=O)C1OC(C)=O (centres undefined)
- TGI [1]: > 100 µM
- TGI [3]: > 100 µM
- TGI [4]: > 100 µM
- TGI [5]: > 100 µM
- TGI [6]: > 100 µM
- TGI [7]: > 100 µM
- TGI [8]: > 100 µM
- TGI [9]: > 100 µM
- TGI [10]: > 100 µM
- TGI [11]: > 100 µM
- TGI [12]: > 100 µM
- TGI [13]: > 100 µM
- TGI [14]: > 100 µM
- TGI [15]: > 100 µM
- TGI [16]: > 100 µM
- TGI [17]: > 100 µM
- TGI [18]: > 100 µM
- TGI [19]: > 100 µM
- TGI [20]: > 100 µM
- TGI [21]: > 100 µM
- TGI [22]: > 100 µM
- TGI [23]: > 100 µM
- TGI [24]: > 100 µM
- TGI [58]: > 100 µM
- TGI [25]: > 100 µM
- TGI [26]: > 100 µM
- TGI [27]: > 100 µM
- TGI [28]: > 100 µM
- TGI [29]: > 100 µM
- TGI [30]: > 100 µM
- TGI [31]: > 100 µM
- TGI [32]: > 100 µM
- TGI [33]: > 100 µM
- TGI [34]: > 100 µM
- TGI [35]: > 100 µM
- TGI [36]: > 100 µM
- TGI [37]: > 100 µM
- TGI [38]: > 100 µM
- TGI [39]: > 100 µM
- TGI [40]: > 100 µM
- TGI [41]: > 100 µM
- TGI [42]: > 100 µM
- TGI [43]: > 100 µM
- TGI [44]: > 100 µM
- TGI [45]: > 100 µM
- TGI [46]: > 100 µM
- TGI [47]: > 100 µM
- TGI [49]: > 100 µM
- TGI [50]: > 100 µM
- TGI [51]: > 100 µM
- TGI [52]: > 100 µM
- TGI [53]: > 100 µM
- TGI [54]: > 100 µM
- TGI [55]: > 100 µM
- TGI [57]: > 100 µM

Compound: C/C(CC(=O)Nc1ccc([N+](=O)[O-])cc1)=N\NC(N)=O
- TGI [1]: > 100 µM
- TGI [2]: > 100 µM
- TGI [3]: > 100 µM
- TGI [4]: > 100 µM
- TGI [5]: > 100 µM
- TGI [6]: > 71.4 µM
- TGI [7]: > 100 µM
- TGI [8]: > 100 µM
- TGI [9]: > 62.6 µM
- TGI [10]: > 100 µM
- TGI [11]: > 100 µM
- TGI [12]: > 100 µM
- TGI [13]: > 100 µM
- TGI [14]: > 100 µM
- TGI [15]: > 100 µM
- TGI [16]: > 100 µM
- TGI [17]: > 100 µM
- TGI [18]: > 100 µM
- TGI [19]: > 100 µM
- TGI [20]: > 100 µM
- TGI [21]: > 100 µM
- TGI [22]: > 100 µM
- TGI [23]: > 100 µM
- TGI [24]: > 100 µM
- TGI [58]: > 100 µM
- TGI [25]: > 100 µM
- TGI [26]: > 100 µM
- TGI [27]: > 100 µM
- TGI [28]: > 100 µM
- TGI [29]: > 100 µM
- TGI [30]: > 100 µM
- TGI [31]: > 100 µM
- TGI [32]: > 100 µM
- TGI [33]: > 100 µM
- TGI [34]: > 100 µM
- TGI [35]: > 100 µM
- TGI [36]: > 100 µM
- TGI [37]: > 69.5 µM
- TGI [38]: > 100 µM
- TGI [39]: > 100 µM
- TGI [40]: > 100 µM
- TGI [41]: > 100 µM
- TGI [42]: > 100 µM
- TGI [43]: > 100 µM
- TGI [44]: > 100 µM
- TGI [45]: > 100 µM
- TGI [46]: > 100 µM
- TGI [47]: > 100 µM
- TGI [48]: > 100 µM
- TGI [49]: > 100 µM
- TGI [50]: 45.8 µM
- TGI [51]: > 100 µM
- TGI [52]: > 100 µM
- TGI [53]: > 100 µM
- TGI [54]: > 100 µM
- TGI [55]: > 100 µM
- TGI [56]: > 100 µM
- TGI [57]: > 100 µM

Compound: O=C(CSc1nnc(-c2ccc(N=Cc3ccc(Cl)cc3)cc2)o1)Nc1ccccc1[N+](=O)[O-]
- TGI [1]: > 100 µM
- TGI [3]: > 100 µM
- TGI [4]: > 100 µM
- TGI [6]: > 100 µM
- TGI [7]: > 100 µM
- TGI [9]: > 100 µM
- TGI [10]: > 100 µM
- TGI [11]: > 100 µM
- TGI [13]: > 100 µM
- TGI [14]: > 100 µM
- TGI [15]: > 100 µM
- TGI [16]: > 100 µM
- TGI [17]: > 100 µM
- TGI [19]: > 100 µM
- TGI [21]: > 100 µM
- TGI [22]: > 100 µM
- TGI [23]: > 100 µM
- TGI [24]: > 100 µM
- TGI [58]: > 100 µM
- TGI [25]: > 100 µM
- TGI [26]: > 100 µM
- TGI [27]: > 100 µM
- TGI [28]: > 100 µM
- TGI [29]: > 100 µM
- TGI [30]: > 100 µM
- TGI [31]: > 100 µM
- TGI [32]: > 100 µM
- TGI [34]: > 100 µM
- TGI [36]: > 100 µM
- TGI [37]: > 100 µM
- TGI [38]: > 100 µM
- TGI [39]: > 100 µM
- TGI [40]: > 100 µM
- TGI [42]: > 100 µM
- TGI [43]: > 100 µM
- TGI [44]: > 100 µM
- TGI [45]: > 100 µM
- TGI [46]: > 100 µM
- TGI [47]: > 100 µM
- TGI [48]: > 100 µM
- TGI [49]: > 100 µM
- TGI [50]: > 100 µM
- TGI [51]: > 100 µM
- TGI [52]: > 100 µM
- TGI [53]: > 100 µM
- TGI [54]: > 100 µM
- TGI [55]: > 100 µM
- TGI [56]: > 100 µM
- TGI [57]: > 100 µM

From PubChem BioAssay (NCI)
